The source of these data is patent US20190337971A1, “PANTETHEINE DERIVATIVES FOR THE TREATMENT OF NEUROLOGIC DISORDERS” (Retrophin, Inc., priority 2016, published 2019).

SMILES strings stand for the structures. Read-outs that look alike come from different tables or passages of the source.

What is called fold induction is the ratio of treated to control signal.

The subject of data set [1] is PANK2−/− IMR32 cells. In words: Coenzyme A assay in PANK2 silenced cells (LC-MS quantification of free CoA). The following applies: Homo sapiens, IMR-32, fold increase in CoA levels relative to controls, treated twice, 24 h + 24 h; for fold induction at 50 µM: compound concentration 50 uM. Format: cell-based, human. How it is done:
A human neuroblastoma IMR32 cell line (ATCC) with stably PANK2 silencing was obtained by lentiviral-delivered small hairpin RNA and cultured in MEM (Invitrogen) supplemented with 10% fetal bovine serum, 2 mM glutamine, 1% penicillin-streptomycin, 1 mM sodium pyruvate, 1 mM non-essential amino acids, and 1.5 g/l sodium bicarbonate.
A non-silencing shRNA construct (scrambled shRNA) and an empty vector expressing GFP alone were used as negative controls. The GFP tag subcloned into the lentiviral vectors was used to monitor the transfection efficiency.
Three days after transduction medium was removed and replaced with fresh medium containing […] puromycin. […] The level of PANK2 expression in selected clones was assessed by Western Blot analysis.
To quantify CoA, PANK2−/− IMR32 cells were plated on 12-well culture plates (Corning) at a density of 0.2×10^6 cells per well. […] Controls with medium containing 0.1% DMSO without test compounds were also included in each plate. […] Before LC-MS analysis of CoA levels, cells were harvested, counted, and collected in a 15 ml falcon tube and centrifuged at 200×g for 5 min at 4° C. Supernatant was removed and cell pellet was washed in 10 ml of ice-cold PBS. To further confirm that the numbers of cells in each sample were equivalent, an equal fraction of pellet was collected from each sample and subjected to protein determination analysis. After centrifugation and supernatant removal, the cell pellet was rapidly frozen in Liquid Nitrogen and stored at −80° C. until analysis.
Intracellular CoA levels were calculated considering an intracellular volume of 1 million cells=2 μl.
The 1*10^6 cellular pellet was extracted with 120 μl of aqueous 20% TFA.
100 μL samples of supernatant were dried under N2 at 20° C. in the dark.
Samples were re-dissolved in 100 μl of 10 mM NH4^+ AcO^− buffer pH 5.1+IS (Dextrorphan 50 ng/ml), stirred for 2 min, sonicated in ultrasonic bath for 1 min, then stirred again for 1 min, and injected into LC-MS.
LC-MS/MS was performed using an Agilent HPLC (1100 Series, USA). The LC system was interfaced with an API-4000 Q-Trap triple quadrupole mass spectrometer (AB Sciex, Toronto, Canada) equipped with a TurboIonSpray ionization source operating in positive ion mode. Analyst™ software version 1.6 (AB Sciex, Toronto, Canada) was used for data acquisition and processing. CoA was separated using a Luna C18 column (2.0×50 mm; 5 μm particle size), column at 25° C. and flow rate of 0.2 ml/min. Injection volume was 15 μl. The mobile phases consisted of water containing 10 mM ammonium acetate pH 7 (mobile phase A) and MeCN-2-propanol 9:1 (mobile phase B).
Results are expressed as fold increase in CoA levels relative to controls (using LC-MS quantification of free CoA).

Data set [2] is described as follows: Stability in human whole blood. To be noted: 37° C., up to 60 min. It is filed as in vitro ADME. How it is done:
The stability of selected compounds in human whole blood was evaluated according to the following protocol. Compounds and positive control samples were dissolved in 100% DMSO at 3 mM (stock solution). To investigate the stability of the test compounds in whole blood, a 200 μM working solution (WS) in water has been prepared by adding 66.66 μl of each 3 mM stock solution to 933.34 μl of water (6.66% DMSO content). After pre-incubation of the whole blood at 37° C. for 5 min in an eppendorf, 10.5 μl of each working solution were spiked into 689.5 μl of heated blood. The obtained 3 μM solution in blood (0.1% DMSO content) was quickly stirred and 100 μl for each time point were transferred to an eppendorf. Each compound was tested in duplicate at five time points (10, 20, 30, 40 and 60 min). At each time point, the reaction was stopped by quenching the spiked blood (100 μl) with 400 μl of 100% acetonitrile containing 0.1% formic acid. Then samples were centrifuged at 15600 rpm for 15 min at +4° C. and 200 μl of supernatant were transferred to a 96-deepwell plate. Samples were evaporated under N2 and reconstituted in H2O/ACN 0.1% formic Acid (98/2 v/v) containing the appropriate internal standard. Analysis was performed without a calibration curve by using an Acquity-UPLC (Waters) coupled to a triple quadrupole mass spectrometer (SciexAPI4000). Time point 0 was obtained by adding 3 μL of each 200 μM working solution to 997 μL of the supernatant obtaining after centrifugation (15600 rpm for 15 min at +4° C.) of the blank matrix quenched with acetonitrile containing 0.1% formic acid.
Stability was determined based on analysis of disappearance of the compounds as a function of incubation time. Quantification of test compounds was measured as a peak area relative to an internal standard. The elimination constant k and half-life (t1/2) were determined as described above in Example 7.

Where [3] appears, read: Diastereoisomer A (upfield shift in 31P NMR), read-out: t1/2 (h) Human Whole Blood Diastereoisomer A (converted).
The mark [4] stands for this setting: Diastereoisomer B, read-out: t1/2 (h) Human Whole Blood Diastereoisomer B (converted).

As for `CC(=O)SCCNC(=O)CCNC(=O)[C@@H]1OP(=O)(OCOC(=O)c2ccnn2C)OCC1(C)C` (stereo partly drawn) [R1011, (((4R)-4-((3-((2-(acetylthio)ethyl)amino)-3-oxopropyl)carbamoyl)-5,5-dimethyl-2-oxido-1,3,2-dioxaphosphinan-2-yl)oxy)methyl 1-methyl-1H-pyrazole-5-carboxylate], the fold induction at 50 µM in data set [1] is 102. Besides, the values for the half-life at 3 μM in data set [2] (setting [3]) and in data set [2] (setting [4]) were 0.42 h and less than 0.16 h, respectively.

Regarding `CC(=O)SCCNC(=O)CCNC(=O)[C@@H]1OP(=O)(OCOC(=O)NC(C)(C)COC(=O)[C@@H](N)C(C)C)OCC1(C)C` (stereo partly drawn) [R1012, 2-((((((4R)-4-((3-((2-(acetylthio)ethyl)amino)-3-oxopropyl)carbamoyl)-5,5-dimethyl-2-oxido-1,3,2-dioxaphosphinan-2-yl)oxy)methoxy)carbonyl)amino)-2-methylpropyl L-valinate], the fold induction at 50 µM in data set [1] turned out to be 1.5. In addition, the half-life at 3 μM in data set [2] (setting [3]) is 0.41 h.

For the molecule `CC(=O)SCCNC(=O)CCNC(=O)[C@@H]1OP(=O)(OCOC(=O)N[C@@H](CSC(=O)C(C)(C)C)C(=O)O)OCC1(C)C` (stereo partly drawn) [R1013, N-(((((4R)-4-((3-((2-(acetylthio)ethyl)amino)-3-oxopropyl)carbamoyl)-5,5-dimethyl-2-oxido-1,3,2-dioxaphosphinan-2-yl)oxy)methoxy)carbonyl)-S-pivaloyl-L-cysteine], the fold induction at 50 µM in data set [1] is 1. The figures for the half-life at 3 μM in data set [2] (setting [3]) and in data set [2] (setting [4]) were 0.78 h and 0.6 h, respectively.

`COC(=O)[C@@H](N[P@]1(=O)OCC(C)(C)[C@H](C(=O)NCCC(=O)NCCSC(C)=O)O1)C(C)C` [R1015, methyl ((2S,4R)-4-((3-((2-(acetylthio)ethyl)amino)-3-oxopropyl)carbamoyl)-5,5-dimethyl-2-oxido-1,3,2-dioxaphosphinan-2-yl)-L-valinate]: in data set [1], the fold induction at 50 µM turned out to be 2.1. Further, the half-life at 3 μM in data set [2] (setting [4]) was more than 1 h.

For the molecule `CC(=O)SCCNC(=O)CCNC(=O)[C@@H]1O[P@](=O)(OCOC(=O)c2cc(C(C)(C)C)n[nH]2)OCC1(C)C` [R1019, (((2R,4R)-4-((3-((2-(acetylthio)ethyl)amino)-3-oxopropyl)carbamoyl)-5,5-dimethyl-2-oxido-1,3,2-dioxaphosphinan-2-yl)oxy)methyl 3-(tert-butyl)-1H-pyrazole-5-carboxylate], the fold induction at 1 µM in data set [1] (compound concentration 1 uM) is 28.8. Also, the half-life at 3 μM in data set [2] (setting [4]) was less than 0.16 h.

For the molecule `COC(=O)[C@H](CSC(=O)C(C)(C)C)NC(=O)OCOP1(=O)OCC(C)(C)[C@H](C(=O)NCCC(=O)NCCSC(C)=O)O1` (stereo partly drawn) [R1020, methyl N-(((((4R)-4-((3-((2-(acetylthio)ethyl)amino)-3-oxopropyl)carbamoyl)-5,5-dimethyl-2-oxido-1,3,2-dioxaphosphinan-2-yl)oxy)methoxy)carbonyl)-S-pivaloyl-L-cysteinate], the fold induction at 50 µM in data set [1] stood at 74.2. In addition, the half-life at 3 μM in data set [2] (setting [3]) is 0.65 h.

For `CC(=O)SCCNC(=O)CCNC(=O)[C@@H]1OP(=O)(OCOC(=O)NCCSC(=O)[C@@H](N)C(C)C)OCC1(C)C` (stereo partly drawn) [R1021, S-(2-((((((4R)-4-((3-((2-(acetylthio)ethyl)amino)-3-oxopropyl)carbamoyl)-5,5-dimethyl-2-oxido-1,3,2-dioxaphosphinan-2-yl)oxy)methoxy)carbonyl)amino)ethyl) (2S)-2-amino-3-methylbutanethioate], the fold induction at 50 µM in data set [1] amounted to 3.7. Besides, the half-life at 3 μM in data set [2] (setting [3]) is 0.32 h.

Regarding `CC(=O)OCOP1(=O)OCC(C)(C)[C@H](C(=O)NCCC(=O)NCCSC(C)=O)O1` (stereo partly drawn) [R1022, (((4R)-4-((3-((2-(acetylthio)ethyl)amino)-3-oxopropyl)carbamoyl)-5,5-dimethyl-2-oxido-1,3,2-dioxaphosphinan-2-yl)oxy)methyl acetate], in data set [1], the fold induction at 50 µM amounted to 114. Moreover, the half-life at 3 μM in data set [2] (setting [3]) and in data set [2] (setting [4]) was less than 0.16 h each time.

Regarding `CC(=O)SCCNC(=O)CCNC(=O)[C@@H]1OP(=O)(OCOC(=O)NCCSC(=O)C(C)(C)C)OCC1(C)C` (stereo partly drawn) [R1023, S-(2-((((((4R)-4-((3-((2-(acetylthio)ethyl)amino)-3-oxopropyl)carbamoyl)-5,5-dimethyl-2-oxido-1,3,2-dioxaphosphinan-2-yl)oxy)methoxy)carbonyl)amino)ethyl) 2,2-dimethylpropanethioate], in data set [1], the fold induction at 50 µM came to 17. Besides, the half-life at 3 μM in data set [2] (setting [3]) was 0.31 h; in data set [2] (setting [4]), 0.17 h.

Consider `CC(=O)SCCNC(=O)CCNC(=O)[C@@H]1O[P@](=O)(OCOC(=O)NCCOC(=O)C(C)(C)C)OCC1(C)C` [R1031, 2-((((((2R,4R)-4-((3-((2-(acetylthio)ethyl)amino)-3-oxopropyl)carbamoyl)-5,5-dimethyl-2-oxido-1,3,2-dioxaphosphinan-2-yl)oxy)methoxy)carbonyl)amino)ethyl pivalate], for which, in data set [1], the fold induction at 50 µM came out at 23.2. In addition, the half-life at 3 μM in data set [2] (setting [3]) is 0.41 h; in data set [2] (setting [4]), 0.25 h.
